This passage reports ED50, inhibition in vivo and LD50 results from patent US5158950A, “1,3-dithiol-2-ylidene derivatives and process for the preparation thereof” (Yuhan Corporation, Ltd., priority 1987, dated 1992).

For data set [1], the system named is serum ALT level after CCl4 treatment. Nature of the data set: Determination of 50% inhibitory dose (ID50) against CCl4-induced serum ALT increase. The format is in vivo. As to conditions: Mus musculus; mice, oral, 6 h before CCl4; estimated from dose-response curve at 50, 25, 12.5, 6.25 mg/kg. Here is the method:
Principle The various doses of test compounds were administered to mice, followed by the treatment with CCl4 after 6 hours. 24 Hours after the CCl4 treatment, the serum ALT level of the animals were determined. The hepatoprotective effect of the test compounds and the doses were plotted to form dose-response curves. The ID50 doses of the test compounds were estimated from the dose-response curves.
Method; The experimental animals were divided into normal, CCl4 treated and test compound treated groups. Each group consisted of 8 mice with body weight of 20-25 grams. The test compounds were suspended in 0.2% CMC-Na solution and administered orally at a dose of 50 mg, 25 mg, 12.5 mg, or 6.25 mg/125 ml/kg body weight. Only the vehicle, 0.2% CMC-Na solution, was administered to the normal and to the CCl4 treated group instead of the test compound suspension. 6 Hours after the drug administration, the CCl4 solution in olive oil was administered orally to the CCl4 treated and the test compound treated groups at the dose of 50 ul/25 ml olive oil/kg body weight. The normal group was administered olive oil only at the same dose. 24 Hours after the CCl4 administration, blood samples were collected from the orbital sinus of the animals and the sera were obtained by centrifugation. The serum ALT activities were monitored and the hepatoprotective effect of the test compounds were calculated by the same method as described in experiment 1. The inhibitory percentages were plotted against the corresponding doses of the test compounds to make dose-response curves. The 50% inhibitory dose of test compound was estimated from the dose-response curve.

Data set [2] relates to serum ALT activity induced by CCl4. The data set can be described thus: Protective effect against acute hepatic damage induced by carbon tetrachloride (serum ALT). The following applies: Mus musculus; mice, 50 mg/kg oral, 6 h before CCl4 (50 ul/kg oral); ALT 24 h after CCl4; read-out: Inhibitory (%): protective effect against increase of serum ALT activity induced by CCl4. The format is in vivo. On the procedure: Principle; Carbon tetrachloride (CCl4) is a well-known hepatotoxic agent, thus widely used to produce experimental animal models for screening the potential drugs acting upon hepatic diseases. In this experiment test compounds were administered to mice prior to treatment with CCl4. 24 Hours after the CCl4 treatment, the animals were sacrificed and serum alanine aminotransferase (ALT) levels were determined. The hepatoprotective effect of a test compound was evaluated by the suppressive action against the increase of serum ALT induced by CCl4.
Method; The experimental animals were divided into normal, CCl4 treated and test compound treated groups. Each group consisted of 8 mice with body weight of 20-25 grams. The test compounds were suspended in 0.2% sodium carboxy methyl cellulose (CMC-Na) solution and administered orally at the dose of 50 mg/125 ml/kg body weight. Only the vehicle, 0.2% CMC-Na solution, was administered to the normal and to the CCl4 treated group instead of the test compound suspension. 6 Hours after the drug administration, the CCl4 solution in olive oil was administered orally to the CCl4 treated- and the test compound treated group at the dose of 50 ul/25 ml olive oil/kg body weight. The normal group was administered olive oil only at the same dose. 24 Hours after the CCl4 administration, blood samples were collected from the orbital sinus of the animals and the sera were obtained by centrifugation The serum ALT activities were monitored using an automatic blood analyzer (Gilford, SBA 300). The hepatoprotective effect of the test compounds was expressed by the suppressive percentage against the increase of serum ALT level induced by CCl4 calculated by the following formula; [formula]

Data set [3] is described as follows: Acute oral toxicity, median lethal dose (LD50). The following applies: mouse, in vivo, male ICR mice, deaths counted for 14 days. On the procedure:
Each test compound was suspended in a 0.2% CMC-Na solution in various concentrations to make test suspension. The test suspensions were administered orally to male ICR mice (10 in each group) at various doses. The number of dead mice was counted for 14 days and the value of mediam lethal dose (LD50, g/kg) was calculated by the Hitchifield-Wilcoxon method.

As usually defined, the ED50 is the dose at which the effect has come halfway, by size or by number of responders. In general, LD50 refers to the dose expected to kill half of the subjects tested. Read a high LD50 as lower toxicity.

Turning to `CC(C)OC(=O)C(C(=O)Nc1cnccn1)=C1SC=CS1` [18(l), Isopropyl 2-(1,3-dithiol-2-ylidene)-2-[N-(pyrazin-2yl)carbamoyl]acetate], the ED50 in data set [1] is less than 6.25 mg/kg. The inhibition in vivo at 50 mg/kg in data set [2] turned out to be 99.8%. In data set [3], this molecule yielded an LD50 at 336 h of more than 5000 mg/kg.

Consider `Cc1nnc(NC(=O)C(C(=O)OC(C)C)=C2SC=CS2)s1` [18(j)], for which the ED50 in data set [1] is 10 mg/kg. For the same molecule, in data set [2], the inhibition in vivo at 50 mg/kg is 100%. For the same molecule, in data set [3], the LD50 at 336 h was more than 5000 mg/kg.

As to `CC(C)OC(=O)C(C(=O)Nc1nccs1)=C1SC=CS1` [19(a), Isopropyl 2-(b 1,3-dithiol-2-ylidene)-2-[N-(2-thiazolyl)-carbamoyl) acetate], in data set [1], the ED50 is 6.25 mg/kg. In data set [2], the inhibition in vivo at 50 mg/kg was determined as 100%. For the same molecule, the LD50 at 336 h in data set [3] is more than 5000 mg/kg.
